Structures can show the parent of a compound that is named as a salt. Blank lines part the entries; values can stand above or below the compound they belong to.
Tests used:
[1] = test system: Hepatocyte Growth Factor (HGF); assay: HGF mRNA expression in TGF-β1-treated normal human dermal fibroblasts (real-time PCR); assay type: cell-based; conditions: compound 500 μM, 24 h; for fold induction at 500 µM: Homo sapiens, NHDF + rhTGF-β1 (10 ng/ml), TGF-β1 control = 1.00, untreated = 7.23, read-out: HGF Relative Quantitation
Experimental: (§1) Experiments were undertaken to determine the effect of compounds on hepatocyte growth factor expression in vitro normal human dermal fibroblasts (NHDF) from adult donor (Clonetics #CC-2511). NHDF were starved overnight in DMEM/F12+0.5% FBS and treated with or without rhTGF-β1 (10 ng/ml) and compound I (500 μM) for 24 h. RNA was isolated with miRNeasy® kit (QIAGEN®), including on-column DNase digestion step. cDNA synthesis was done (0.5 μg RNA/reaction) using the RT^2 First Strand kit (QIAGEN® #330401). Real-Time PCR was performed as described in the RT^2 Profiler PCR Array handbook on a AB-7900HT real-time cycler. Real-Time PCR data was analyzed using the ΔΔCt method on the RT^2 Profiler PCR Array Data Analysis Web Portal. All Ct values >35 or non amplified were changed to the cut-off value of 35. The housekeeping genes used for normalization are GAPDH and RPLP0. The control group is TGF-β1 treated cells.

[2] = test system: LOX, MMP13, PLAU (uPA), serpin E1, TIMP3 and ILK; assay: Expression of regeneration markers in TGF-β1-injured NHDF (FIG. 2); assay type: cell-based, human; conditions: rhTGF-β1 (10 ng/ml), compound 500 μM, 24 h
Experimental: as §1, with “cells. An experiment was undertaken to determine the effect of compounds on the expression of regeneration markers. This experiment was performed with NHDF (Normal Human Dermal Fibroblasts) and human epithelial cells (renal tubular epithelial cells, HK-2) involved in tissue regeneration after single, multiple or constant injury. Injury was simulated by incubation of the cells with TGF-β1. […]” for “cells.”

[3] = test system: LOX, MMP1, MMP2, MMP9, MMP13, TIMP3 and PLAT (tPA); assay: Expression of regeneration markers in TGF-β1-injured HK-2 epithelial cells (FIG. 3); assay type: cell-based, human; conditions: HK-2 cells, rhTGF-β1 (10 ng/ml), compound 500 μM, 24 h
[4] = test system: Serpin A1 (AAT); assay: AAT mRNA expression, qPCR-panel on NHDF (FIG. 4); assay type: cell-based, human; conditions: injured NHDF cells
Experimental: as §1, with “cells. As mentioned above, AAT can induce nerve regeneration. […] Compound I is representative of the compounds of formula I disclosed herein. Therefore, the compounds of formula I disclosed herein may increase regeneration of nerves via the production of endogenous AAT at the site of injury.” for “cells.”

[5] = test system: injured kidney; assay: Organ function (GFR) of an injured kidney (FIG. 5); assay type: in vivo
[6] = test system: Hepatocyte Growth Factor (HGF); assay: HGF mRNA expression in TGF-β1-treated normal human dermal fibroblasts (real-time PCR); assay type: cell-based; conditions: NHDF + rhTGF-β1 (10 ng/ml), 24 h, TGF-β1 control = 1.00, untreated = 7.23, read-out: HGF Relative Quantitation; for fold induction at 250 µM: compound 250 μM; for fold induction at 100 µM: compound 100 μM

Compound: CCCCCc1cccc(C(F)C(=O)O)c1 (racemic) [Compound XIII, Sodium Salt of (RS)-2-Fluoro-2-(3-pentylphenyl)acetic acid]
fold induction at 500 µM [1]: 1.71

Compound: CCCCCc1cccc(CC(=O)[O-])c1.[Na+] [Compound I, Sodium Salt of (3-pentylphenyl)acetic acid]
fold induction at 500 µM [1]: 4.23
expression of HGF (FIG. 1), result in words ([1]; NHDF, rhTGF-β1 (10 ng/ml)): increases the expression of HGF
expression level of regeneration markers LOX, MMP13, PLAU (uPA), serpin E1, TIMP3 and ILK [2]: all expressed at a normal level
expression level of regeneration markers LOX, MMP1, MMP2, MMP9, MMP13, TIMP3 and PLAT (tPA) [3]: all expressed at a level close to the normal level observed in healthy cells
AAT mRNA expression [4]: increase AAT mRNA expression
organ function (GFR) [5]: increase in organ function (GFR)

Compound: CCCCCc1cccc(CCC(=O)O)c1 [Compound II, Sodium Salt of 3-(3-pentylphenyl)propionic acid]
fold induction at 250 µM [6]: 1.37

Compound: CCCCc1cccc(CCC(=O)O)c1 [Compound III, Sodium Salt of 3-(3-butylphenyl)propionic acid]
fold induction at 500 µM [1]: 2.41

Compound: CCC/C=C/c1cccc(CC(=O)O)c1 [Compound IV, Sodium Salt of E-(3-pent-1-enyl-phenyl)acetic acid]
fold induction at 500 µM [1]: 3.8

Compound: CCCC/C=C/c1cccc(CC(=O)O)c1 [Compound V, Sodium Salt of 2-(3-(Hex-1-enyl]phenyl)acetic acid]
fold induction at 100 µM [6]: 2.73

Compound: CCCCCCc1cccc(CC(=O)O)c1 [Compound VI, Sodium Salt of 2-(3-Hexylphenyl)acetic acid]
fold induction at 100 µM [6]: 2.77

Compound: CCCCCc1cc(O)cc(CC(=O)O)c1 [Compound VII, Sodium Salt of 3-hydroxy-5-pentylphenylacetic acid]
fold induction at 500 µM [1]: 2.66

Compound: CCCCCc1cc(CC(=O)O)ccc1O [Compound VIII, Sodium Salt of 2-(4-Hydroxy-3-pentylphenyl)acetic acid]
fold induction at 500 µM [1]: 1.44

Compound: CCCCCc1cc(F)cc(CC(=O)O)c1 [Compound X, Sodium Salt of 2-(3-fluoro-5-pentylphenyl)acetic acid]
fold induction at 250 µM [6]: 3.06

Compound: CCCCCc1cccc(CC(=O)O)c1F [Compound XI, Sodium Salt of 2-(2-Fluoro-3-pentylphenyl)acetic acid]
fold induction at 250 µM [6]: 3.38

Compound: CCCCCc1cc(CC(=O)O)ccc1F [Compound XII, Sodium Salt of 2-(4-Fluoro-3-pentylphenyl)acetic acid]
fold induction at 500 µM [1]: 2.47

melting point: 225 to 230 °C
Compound: CCCCCc1cc(CCCCC)cc(CC(=O)[O-])c1.[Na+] [Compound XIV, Sodium 2-[3,5-Dipentylphenyl]acetate]

Compound: CCCCCc1cc(CC(=O)O)cc(CCCCC)c1O [Compound XVIII, Sodium Salt of 2-(4-Hydroxy-3,5-dipentylphenyl)acetic acid]
fold induction at 25 µM ([6]; compound 25 μM): 1.4

Compound: CCCCCc1cc(CCCCC)c(F)c(CC(=O)O)c1 [Compound XXXII, Sodium Salt of 2-(2-Fluoro-3,5-dipentylphenyl)acetic Acid]
fold induction at 10 µM ([6]; compound 10 μM): 1.73

Compound: CCCCCc1cc(CCCCC)cc(C(C)(C)C(=O)O)c1 [Compound XXXIII, Sodium Salt of 2-(3,5-Dipentylphenyl)-2-methylpropanoic Acid]
fold induction at 6 µM ([6]; compound 6 μM): 1.54
